Source: PMC9131275, “Drug-induced self-assembled nanovesicles for doxorubicin resistance reversal via autophagy inhibition and delivery synchronism” (Theranostics, 2022)
Where a name gives a salt, the structure may show the parent alone. Read-outs that look alike come from different tables or passages of the source.

Columns and labels:
MCF-7/ADR cells [1] = test: Cytotoxicity by CCK-8 kit, 48 h; assay type: cell-based, human
Method: (§10) Accordingly, the reversal index (RI) of DOX·HCl for MCF-7/ADR cells and K562/ADR cells was calculated using the following formula: RI = IC50 of the test formulation / IC50 of free DOX·HCl.
(§11) at 37 °C with 5 % CO2. After 24 h, cells were exposed to increasing concentrations of different formulations for 48 h. Then, 10 µL of CCK-8 reagent was added to each well and the plates were incubated for 2 h. And the absorbency was determined by a microplate reader (Thermo, USA) at 450 nm. Data are reported as means of triplicate

K562/ADR cells [2] = test: Cytotoxicity by CCK-8 kit, 48 h; assay type: cell-based, human
Method: as §10, §11

K562 cells = test: Cytotoxicity by CCK-8 kit, 48 h; assay type: cell-based; conditions: Homo sapiens
Method: (§1) The cytotoxicity of free DOX·HCl, free CQ, physical mixture of free DOX·HCl and CQ (DC), physical mixture of PPAP and cholesteryl hemisuccinate (PPAP/C) and drug-loaded nanovesicles on MCF-7 cells, MCF-7/ADR cells, K562 cells or K562/ADR cells was investigated at 48 h via CCK-8 kit. Accordingly, the reversal index (RI) of DOX·HCl for MCF-7/ADR cells and K562/ADR cells was calculated using the following formula: RI = […]. The combination index (CI) between DOX⋅HCl and CQ at different ratios was calculated as follows: CI = D1/(Dm)1 + D2/(Dm)2 + D1*D2/(Dm)1*(Dm)2, where D1 and (Dm)1 represent the IC50 values of DOX⋅HCl applied in combination or alone, respectively, and D2 and (Dm)2 represent the IC50 values of CQ applied in combination or alone, respectively. In addition, apoptosis analysis was implemented using the Annexin V-FITC/PI kit (LianKe, China) based on the kit instructions. The details were provided by Supplementary Material (Supplementary section 1). […]
(§2) Cytotoxicity and annexin V-FITC/PI apoptosis assay
(§3) To investigate the cytotoxicity of free DOX·HCl, free CQ, physical mixture of free DOX·HCl and CQ, PPAP/C and drug-loaded nanovesicles, various cell lines (MCF-7, […]
(§4) cells/well, respectively, and cultured in RPMI 1640 containing 10 % fetal bovine serum […]
(§5) at 37 °C with 5 % CO2. After 24 h, cells were exposed to increasing concentrations of different formulations for 48 h. Then, 10 µL of CCK-8 reagent was added to each well and the plates were incubated for 2 h. And the absorbency was determined by a microplate reader (Thermo, USA) at 450 nm. […]
(§6) Afterwards, rhodamine 123 (2 µg/mL) was incubated with these cells for 30 […]
(§7) minutes at 37°C . […]
(§8) 104 cells was collected for each sample at the appropriate period.

MCF-7 cells = test: Cytotoxicity by CCK-8 kit, 48 h; assay type: cell-based; conditions: Homo sapiens
Method: as §1, §2, §3, §4, §5, §6, §7, §8

MCF-7/ADR cells [3] = test: Annexin V-FITC/PI apoptosis assay; assay type: cell-based, human; conditions: 5 μg/mL DOX·HCl and/or 10 µg/mL CQ, 48 h
K562/ADR cells [4] = test: Annexin V-FITC/PI apoptosis assay; assay type: cell-based, human; conditions: 5 μg/mL DOX·HCl and/or 10 µg/mL CQ, 48 h
K562/ADR tumors = test: In vivo anti-tumor activity; design: species or system BALB/c nude mice; conditions: K562/ADR tumor-bearing nude mice, i.v. at 0, 2, 4 and 6 days, Day 16
Method: (§9) The BALB/c nude mice were subcutaneously inoculated with K562/ADR cells (2×10^7 cells) on the right flank to construct K562/ADR tumor-bearing mice models. After 10 days, mice were randomly divided into seven groups (n = 5) once the tumors reached about 80 mm^3. And then various formulations were injected intravenously through the tail vein every other day for four times and saline was taken as the control group. […] Later, the mice were sacrificed and the tumors were excised and weighted. In addition, tumors and major organs (heart, liver, spleen, lung, and kidney) were collected for slice analysis by hematoxylin and eosin (H&E) staining. The tumors were also analyzed by immunohistochemical detection of Ki67, immunofluorescence assay of LC3 and terminal deoxynucleotidyl transferased dUTP nick end labeling (TUNEL) assay.

[5] = mouse, in vivo
Method: as §9

P-gp = target: T1, P-gp (Homo sapiens, UniProt P08183); test: P-gp functional activity (rhodamine 123 accumulation, flow cytometry); assay type: cell-based; conditions: MCF-7/ADR and K562/ADR cells, increasing CQ concentrations
T1 construct: the extremely high expression of P-gp existed in MCF-7/ADR cells and K562/ADR cells; host or cells: MCF-7/ADR and K562/ADR cells
Method: as §5, with “nm. Data are reported as means of triplicate” for “nm.”
The apoptosis analysis was further investigated. Briefly, MCF-7/ADR or K562/MDR cells (2 × 10^5 cells/well) were seeded in 12-well plates and incubated overnight in RPMI 1640 containing 10 % fetal bovine serum. Afterwards, the cells were incubated with various formulations for 48 h at the final DOX·HCl and CQ concentration of 5 and 10 µg/mL, respectively. The cells were treated according to the kit instructions and analyzed by flow cytometry.
P-gp functional activity evaluation
Flow cytometry analysis was used to investigate the effect of CQ on the functional activity of P-gp through monitoring the intracellular uptake of rhodamine 123, namely, a kind of P-gp substrate. Specifically, MCF-7/ADR cells and K562/ADR cells (2 × 10^5 cells/well) were seeded in 12-well plates, respectively. […] Then the cell suspension was analyzed by flow cytometry with the 488 nm argon ion laser. Also, the individual fluorescence of 104 cells was collected for each sample at the appropriate period.

[6] = ref [20], [21]; cited from earlier work

T1 sequence (P08183 whole entry): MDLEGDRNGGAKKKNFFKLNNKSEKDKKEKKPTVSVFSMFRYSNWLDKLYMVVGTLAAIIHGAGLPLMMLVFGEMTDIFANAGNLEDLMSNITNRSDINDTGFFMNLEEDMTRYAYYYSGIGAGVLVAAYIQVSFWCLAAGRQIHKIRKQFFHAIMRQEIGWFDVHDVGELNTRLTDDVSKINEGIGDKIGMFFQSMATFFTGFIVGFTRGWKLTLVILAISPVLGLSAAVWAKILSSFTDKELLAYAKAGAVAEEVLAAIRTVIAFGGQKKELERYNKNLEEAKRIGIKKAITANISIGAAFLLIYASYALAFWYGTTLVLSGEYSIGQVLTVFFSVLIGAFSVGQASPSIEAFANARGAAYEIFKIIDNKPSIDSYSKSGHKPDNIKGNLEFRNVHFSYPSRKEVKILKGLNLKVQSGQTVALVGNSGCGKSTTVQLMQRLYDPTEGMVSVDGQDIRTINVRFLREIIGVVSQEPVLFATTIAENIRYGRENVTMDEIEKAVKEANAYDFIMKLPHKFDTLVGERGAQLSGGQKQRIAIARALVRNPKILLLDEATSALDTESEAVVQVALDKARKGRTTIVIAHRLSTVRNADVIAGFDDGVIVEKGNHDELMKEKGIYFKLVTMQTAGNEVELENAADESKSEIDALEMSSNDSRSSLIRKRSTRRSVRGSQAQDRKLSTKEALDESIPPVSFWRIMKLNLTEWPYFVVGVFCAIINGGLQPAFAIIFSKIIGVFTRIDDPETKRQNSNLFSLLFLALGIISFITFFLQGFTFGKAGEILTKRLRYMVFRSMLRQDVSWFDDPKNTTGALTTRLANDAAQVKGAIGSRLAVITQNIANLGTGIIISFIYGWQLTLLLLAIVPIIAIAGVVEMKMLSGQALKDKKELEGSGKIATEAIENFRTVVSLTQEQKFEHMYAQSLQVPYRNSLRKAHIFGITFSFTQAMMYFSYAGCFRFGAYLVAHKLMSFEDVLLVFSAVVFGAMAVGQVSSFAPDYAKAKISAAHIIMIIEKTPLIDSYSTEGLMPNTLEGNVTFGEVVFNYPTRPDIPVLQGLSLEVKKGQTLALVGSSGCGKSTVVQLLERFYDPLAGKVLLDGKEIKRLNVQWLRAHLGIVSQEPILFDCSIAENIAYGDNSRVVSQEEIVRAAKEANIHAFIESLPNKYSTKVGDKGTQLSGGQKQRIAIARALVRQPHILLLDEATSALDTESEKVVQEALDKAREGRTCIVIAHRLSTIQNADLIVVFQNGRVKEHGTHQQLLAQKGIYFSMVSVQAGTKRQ

Row | Compound | IC50 (MCF-7/ADR cells [1]; Homo sapiens, NCI/ADR-RES, MCF-7/ADR cells, 48 h, read-out: IC50 of DOX·HCl) | DOX·HCl-resistance index (MCF-7/ADR cells [1]; MCF-7/ADR cells vs sensitive cells) | IC50 (K562/ADR cells [2]; Homo sapiens, K562/ADR cells, 48 h, read-out: IC50 of DOX·HCl) | DOX·HCl-resistance index (K562/ADR cells [2]; K562/ADR cells vs sensitive cells) | IC50 (K562 cells; K562 cells, within 48 h, read-out: IC50) | IC50 (MCF-7 cells; MCF7, MCF-7 cells, within 48 h, read-out: IC50) | Apoptosis rate (MCF-7/ADR cells [3]) | Apoptosis rate (K562/ADR cells [4]) | tumor inhibition rate (TIR) (K562/ADR tumors) | body weight change during treatment [5] | histopathological abnormalities of hearts (H&E) [5] | IC50 (K562 cells; K562, 48 h) | IC50 (MCF-7 cells; MCF7, 48 h) | effect on efflux activity of P-gp (rhodamine 123 accumulation) (P-gp) | plasma protein binding rate [6]
1 | COc1cccc2c1C(=O)c1c(O)c3c(c(O)c1C2=O)C[C@@](O)(C(=O)CO)C[C@@H]3O[C@H]1C[C@H](N)[C@H](O)[C@H](C)O1 [DOX·HCl, Doxorubicin hydrochloride] | 72.1 µg/mL | 902 fold | 18.9 µg/mL | 126 fold | 0.15 ± 0.06 µg/mL | 0.08 ± 0.01 µg/mL | 40.83% | 42.56% | 28.80% | sharp decrease in body weight | severe histopathological abnormalities and lesions in the cardiac muscles | – | – | – | –
2 | CCN(CC)CCCC(C)Nc1ccnc2cc(Cl)ccc12 (centres unmarked) [CQ, Chloroquine] | – | – | – | – | – | – | 33.64% | 40.17% | – | – | – | 17.4 ± 1.34 µg/mL | 23.9 ± 0.42 µg/mL | can inhibit the efflux activity of P-gp | 60%
